# Experimental data as given in patent publication US9242996B2 (Novartis AG, priority 2013, dated 2016).
# Target: activated ERK2 (Homo sapiens (Human), UniProt P28482)
# Assay: Activated ERK2 kinase assay, ERK2 New conditions (AlphaScreen, ERKtide phosphorylation)
# Type: biochemical
# Details: 0.25 nM ERK2, 200 nM ERKtide peptide, 35 μM ATP, 30 min preincubation
# Method: The assay is carried out in 50 mM HEPES [pH 7.5], 5 mM MgCl2, 1 mM DTT, 0.01% Tween-20, 0.05% BSA using 0.25 nM ERK2, 200 nM ERKtide peptide and 35 μM ATP (all concentrations are final in the reaction) in a total volume of 10.25 μL. […] Compound dilution series are prepared in 100% DMSO. ERK2 is preincubated with compounds for 30 minutes at ambient temperature. Reaction is initiated by addition of a substrate cocktail of ERKtide peptide and ATP and is allowed to proceed for 2-3 hours at ambient temperature. Reaction is terminated by addition of 10 μL of a 2× stop buffer consisting of 100 mM Tris-Cl [pH 7.5], 25 mM EDTA, 0.01% Tween 20, 10 μg/mL of AlphaScreen Protein A Acceptor Beads, 10 μg/mL of Streptavidin Donor Beads (PerkinElmer, Waltham, Mass.), and 1.4 μg/mL phospho-EGF Receptor (Thr669) antibody (Cat #3056, Cell Signaling Technology, Danvers, Mass.). Terminated reactions are read, after overnight incubation in the dark, on an EnVision Multilabel Plate Reader (PerkinElmer, Waltham, Mass.), with excitation and emission wavelengths set to 680 nm and 570 nm, respectively. IC50 values are determined using a four-parameter fit.
# Sequence of activated ERK2 (P28482 whole entry): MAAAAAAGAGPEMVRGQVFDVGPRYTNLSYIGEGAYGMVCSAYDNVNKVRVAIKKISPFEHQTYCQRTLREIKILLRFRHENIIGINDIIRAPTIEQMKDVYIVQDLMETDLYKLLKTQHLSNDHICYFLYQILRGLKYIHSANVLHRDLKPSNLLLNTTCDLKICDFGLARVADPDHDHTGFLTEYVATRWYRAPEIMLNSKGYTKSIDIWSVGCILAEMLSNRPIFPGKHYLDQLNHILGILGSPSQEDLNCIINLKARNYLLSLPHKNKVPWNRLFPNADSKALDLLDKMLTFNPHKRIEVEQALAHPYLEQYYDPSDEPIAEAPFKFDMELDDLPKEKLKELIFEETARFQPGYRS
row,SMILES,IC50 [nM]
1,"C[C@@H](NC(=O)c1ccc(-c2cc(-c3cnnn3C)cnc2N)cc1F)c1cccc(Cl)c1 [Example 303, (R)-4-(2-amino-5-(1-methyl-1H-1,2,3-triazol-5-yl)pyridin-3-yl)-N-(1-(3-chlorophenyl)ethyl)-2-fluorobenzamide]",0.221
2,"Nc1ncc(C2CCOCC2)cc1-c1ccc(C(=O)N[C@@H]2CCCN(Cc3ccccc3F)C2)c(F)c1 [Example 113, (R)-4-(2-amino-5-(tetrahydro-2H-pyran-4-yl)pyridin-3-yl)-2-fluoro-N-(1-(2-fluorobenzyl)piperidin-3-yl)benzamide]",780
3,"CC(=O)N1CCCC(c2cnc(N)c(-c3ccc(C(=O)N[C@H](CO)c4ccccc4)c(F)c3)n2)C1 (stereo partly drawn) [Example 215, 4-(6-(1-acetylpiperidin-3-yl)-3-aminopyrazin-2-yl)-2-fluoro-N—((S)-2-hydroxy-1-phenylethyl)benzamide]",28.5
4,"Cn1cc(-c2cnc(N)c(-c3ccc(C(=O)N[C@H](CO)c4ccccc4)c(F)c3)c2)cn1 [Example 107, (S)-4-(2-amino-5-(1-methyl-1H-pyrazol-4-yl)pyridin-3-yl)-2-fluoro-N-(2-hydroxy-1-phenylethyl)benzamide]",1.16
5,"Nc1ncc(C2CCOCC2)nc1-c1ccc(C(=O)N2CCOC[C@@H]2c2ccccc2)cc1 [Example 322, (S)-(4-(3-amino-6-(tetrahydro-2H-pyran-4-yl)pyrazin-2-yl)phenyl)(3-phenylmorpholino) methanone]",91.2
6,"CN1C[C@H](c2cnc(N)c(-c3ccc(C(=O)N[C@H](CO)c4cccc(Cl)c4)c(F)c3)c2)CCC1=O [Example 37, 4-(2-amino-5-((S)-1-methyl-6-oxopiperidin-3-yl)pyridin-3-yl)-N—((S)-1-(3-chlorophenyl)-2-hydroxyethyl)-2-fluorobenzamide]",1.05
7,"Cc1ncc(-c2cnc(N)c(-c3ccc(C(=O)N[C@H](CO)c4ccccc4)c(F)c3)c2)n1C [Example 161, (S)-4-(2-amino-5-(1,2-dimethyl-1H-imidazol-5-yl)pyridin-3-yl)-2-fluoro-N-(2-hydroxy-1-phenylethyl)benzamide]",5.78
8,"Cc1c(-c2cnc(N)c(-c3ccc(C(=O)N[C@H](CO)c4cccc(F)c4)c(F)c3)c2)cnn1C [Example 295, (S)-4-(2-amino-5-(1,5-dimethyl-1H-pyrazol-4-yl)pyridin-3-yl)-2-fluoro-N-(1-(3-fluorophenyl)-2-hydroxyethyl) benzamide]",0.595
9,"CS(=O)(=O)CCc1cnc(N)c(-c2ccc(C(=O)NCc3ccccc3)c(F)c2)n1 [Example 21, 4-(3-amino-6-(2-(methylsulfonyl)ethyl)pyrazin-2-yl)-N-benzyl-2-fluorobenzamide]",2670
10,"C[C@@H](NC(=O)c1ccc(-c2nc(C3CC3)cnc2N)cc1F)c1cc(F)cc(S(C)(=O)=O)c1 [Example 287, (R)-4-(3-amino-6-cyclo-propylpyrazin-2-yl)-2-fluoro-N-(1-(3-fluoro-5-(methylsulfonyl)phenyl)ethyl) benzamide]",0.794
11,"Nc1ncc([C@H]2CCC[C@@H](O)C2)nc1-c1ccc(C(=O)NCc2ccccc2)c(F)c1 (racemic) [Example 12, (+/−)-4-(3-amino-6-((1S,3R)-3-hydroxycyclohexyl)pyrazin-2-yl)-N-benzyl-2-fluorobenzamide]",39.6
12,"NC[C@@H](NC(=O)c1ccc(-c2nc(C3CCOCC3)cnc2N)cc1F)c1ccccc1 [Example 326, (S)-N-(2-amino-1-phenylethyl)-4-(3-amino-6-(tetrahydro-2H-pyran-4-yl)pyrazin-2-yl)-2-fluorobenzamide]",0.253
13,"Cn1cncc1-c1cnc(N)c(-c2ccc(C(=O)N[C@H](CO)c3ccccc3)c(F)c2)c1 [Example 140, (S)-4-(2-amino 5-(1-methyl-1H-imidazol-5-yl)pyridin-3-yl)-2-fluoro-N-(2-hydroxy-1-phenylethyl)benzamide]",1.41
14,"Cc1ccnc(CNC(=O)c2ccc(-c3cc(C4CCOCC4)cnc3N)cc2F)n1 [Example 317, 4-(2-amino-5-(tetrahydro-2H-pyran-4-yl)pyridin-3-yl)-2-fluoro-N-((4-methylpyrimidin-2-yl)methyl) benzamde]",1340
15,"Cc1nn(C)c(C)c1-c1cnc(N)c(-c2ccc(C(=O)N[C@H](CO)c3cccc(Cl)c3)c(F)c2)c1 [Example 154, (S)-4-(2-amino 5-(1,3,5-trimethyl-1H-pyrazol-4-yl)pyridin-3-yl)-N-(1-(3-chlorophenyl)-2-hydroxyethyl)-2-fluorobenzamide]",0.288
16,"Cn1cc(CNC(=O)c2ccc(-c3cc(-c4cnn(C)c4)cnc3N)cc2F)cn1 [Example 237, 4-(2-amino-5-(1-methyl-1H-pyrazol-4-yl)pyridin-3-yl)-2-fluoro-N-((1-methyl-1H-pyrazol-4-yl)methyl) benzamide]",2610
17,"Nc1ncc(-c2ccc(=O)[nH]c2)nc1-c1ccc(C(=O)N[C@H](CO)c2ccccc2)cc1 [Example 129, (S)-4-(3-amino-6-(6-oxo-1,6-dihydropyridin-3-yl)pyrazin-2-yl)-N-(2-hydroxy-1-phenylethyl)benzamide]",2.02
18,"Cn1cc(-c2cnc(N)c(-c3ccc(C(=O)N[C@H](CO)c4cccc(F)c4)c(F)c3)n2)cn1 [Example 280, (S)-4-(3-amino-6-(1-methyl-1H-pyrazol-4-yl)pyrazin-2-yl)-2-fluoro-N-(1-(3-fluorophenyl)-2-hydroxyethyl) benzamide]",1.66
19,"COC(=O)[C@@H]1C[C@H](c2cnc(N)c(-c3ccc(C(=O)N[C@H](CO)c4cccc(Cl)c4)c(F)c3)c2)CN1 [Example 223, (2S,4R)-methyl 4-(6-amino-5-(4-(((S)-1-(3-chlorophenyl)-2-hydroxyethyl)carbamoyl)-3-fluorophenyl)pyridin-3-yl)pyrrolidine-2-carboxylate]",10.4
20,"Cn1cnnc1-c1cnc(N)c(-c2ccc(C(=O)N[C@H](CO)c3cccc(Cl)c3)c(F)c2)c1 [Example 167, (S)-4-(2-amino-5-(4-methyl-4H-1,2,4-triazol-3-yl)pyridin-3-yl)-N-(1-(3-chlorophenyl)-2-hydroxyethyl)-2-fluorobenzamide]",0.998
21,"Cc1nn(C)cc1-c1cnc(N)c(-c2ccc(C(=O)N[C@H](CO)c3cccc(F)c3)c(F)c2)c1 [Example 282, (S)-4-(2-amino-5-(1,3-dimethyl-1H-pyrazol-4-yl)pyridin-3-yl)-2-fluoro-N-(1-(3-fluorophenyl)-2-hydroxyethyl) benzamide]",1.2
22,"N#CCCc1cnc(N)c(-c2ccc(C(=O)N[C@H](CO)c3ccccc3)c(F)c2)n1 [Example 114, (S)-4-(3-amino-6-(2-cyanoethyl)pyrazin-2-yl)-2-fluoro-N-(2-hydroxy-1-phenylethyl)benzamide]",124
23,"Cc1oncc1-c1cnc(N)c(-c2ccc(C(=O)N[C@H](CO)c3ccccc3)c(F)c2)n1 [Example 157, (S)-4-(3-amino-6-(5-methylisoxazol-4-yl)pyrazin-2-yl)-2-fluoro-N-(2-hydroxy-1-phenylethyl)benzamide]",0.416
24,"Cn1nccc1-c1cnc(N)c(-c2ccc(C(=O)N[C@H](CO)c3cccc(S(C)(=O)=O)c3)c(F)c2)c1 [Example 230, (S)-4-(2-amino-5-(1-methyl-1H-pyrazol-5-yl)pyridin-3-yl)-2-fluoro-N-(2-hydroxy-1-(3-(methylsulfonyl)phenyl)ethyl) benzamide]",0.899
25,"Nc1ncc([C@@H]2CCOC2)nc1-c1ccc(C(=O)N[C@H](CO)c2ccccc2)cc1 [Example 136, 4-(3-amino-6-((S)-tetrahydrofuran-3-yl)pyrazin-2-yl)-N—((S)-2-hydroxy-1-phenylethyl)benzamide]",4.51
26,"Nc1ncc([C@H]2C[C@H]3COC(=O)N3C2)cc1-c1ccc(C(=O)N[C@H](CO)c2cccc(Cl)c2)c(F)c1 [Example 9, 4-(2-amino-5-((6R,7aS)-3-oxohexahydropyrrolo[1,2-c]oxazol-6-yl)pyridin-3-yl)-N—((S)-1-(3-chlorophenyl)-2-hydroxyethyl)-2-fluorobenzamide]",3.57
27,"Cc1c(-c2cnc(N)c(-c3ccc(C(=O)N[C@H](CO)c4ccccc4)c(F)c3)c2)cnn1C [Example 170, (S)-4-(2-amino-5-(1,5-dimethyl-1H-pyrazol-4-yl)pyridin-3-yl)-2-fluoro-N-(2-hydroxy-1-phenylethyl)benzamide]",1.58
28,"Nc1ncc(C2CCOCC2)nc1-c1ccc(C(=O)N[C@@H]2CCCN(S(=O)(=O)c3ccccc3F)C2)c(F)c1 [Example 48, (R)-4-(3-amino-6-(tetrahydro-2H-pyran-4-yl)pyrazin-2-yl)-2-fluoro-N-(1-((2-fluorophenyl)sulfonyl)piperidin-3-yl)benzamide]",122
29,"CS(=O)(=O)[C@@H]1CCC[C@@H](c2cnc(N)c(-c3ccc(C(=O)NCc4ccccc4)c(F)c3)n2)C1 (racemic) [Example 13, (+/−)-4-(3-amino-6-((1R,3R)-3-(methylsulfonyl)cyclohexyl)pyrazin-2-yl)-N-benzyl-2-fluorobenzamide]",361
30,"Nc1ncc(C2COC2)nc1-c1ccc(C(=O)N[C@H](CO)c2ccccc2)c(F)c1 [Example 224, (S)-4-(3-amino-6-(oxetan-3-yl)pyrazin-2-yl)-2-fluoro-N-(2-hydroxy-1-phenylethyl)benzamide]",18.8
